Measurements reported in US10213451B2, “Methods and compounds for modulating the secretion or expression of adhesion proteins or angiopoietins of cells” (PACIFIC ARROW LIMITED, priority 2004, dated 2019).
In brackets after ≈: the same amount, converted by molar mass. Read-outs that look alike come from different tables or passages of the source.

How the values were obtained:
HeLa cells = assay: MTT assay HeLa; assay type: cell-based; settings: Homo sapiens
Method: (§1) Cells. Human cancer cell lines were obtained from American Type Culture Collection: HTB-9 (bladder), HeLa-S3 (cervix), DU145 (prostate), H460 (lung), MCF-7 (breast), K562 (leukocytes), HCT116 (colon), HepG2 (liver), U2OS (bone), T98G (brain), SK-MEL-5 (Skin) and OVCAR-3 (ovary). The cells were grown in following culture media: HeLa-53, DU145, MCF-7, Hep-G2 and T98G are in MEN (Earle's salts); HTB-9, H460, K562 and OVCAR-3 in RPMI-1640; HCT-116 and U2OS in McCoy-5A. They are supplemented with 10% fetal calf serum, glutamine and antibiotics, and incubated in an incubator with 5% CO2 humidified at 37° C.
(§2) MTT Assay. The procedure for MTT assay followed the method described by Carmichael et al. (1987) with modifications. […] The formazan (product of the reduction of tetrazolium by viable cells) formed and was dissolved with DMSO and the O.D. at 490 nm, and was measured by an ELISA reader. The MTT level of the cells before drug-treatment was also measured (T0). The % cell-growth (% G) is calculated as: % G=(TD−T0/TC−T0)×100(1), where TC or TD represents O.D. readings of control or drug-treated cells. When T0>TD, then the cytotoxicity (LC) expressed as % of the control is calculated as: % LC=(TD−T0/T0)×100(2).

[1] = system: swelling of rats' feet induced by Carrageenin; assay: Carrageenin-induced swollen feet model; assay type: in vivo, SD rats;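 further: percent increase in foot volume over pre-inflammation volume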
Method: SD rats, male, weighing 163±18 g were used in the experiment. The tested animals are allowed to acclimate for a week. The rats drink water freely. The rats were randomly divided into 5 groups: control, positive control and 3 test groups, and each group had 8 rats. The dose for 3 groups of rats are 10, 20 and 40 mg/kg. Indometacin for the positive control is 10 mg/kg and fed once after modeling. The dose of CMC-Na for the control group is the same as each test group and fed into the stomach once a day before modeling for 5 days. The tested drug was fed into the stomach 10 minutes before the animal modeling (1 mL/100 g). The volumes of right foot of each rat were measured 0.5, 1, 2 and 4 hours before and after modeling. The volumes of the right hind feet were measured at a different time, 10 minutes after inflammation induced by subcutaneous injection (with syringe needle 7) of 0.05 mL of the 1% of Carrageenin/normal saline mixture into the feet. The Rate of swelling of the feet was calculated, compared with the controls and subject to a student t-test. Rate of swelling (E) (%)=Ltn−Lt0/Lt0×100% • Ltn: volume of foot after the inflammation • Lt0: volume of foot before the inflammation

RMG2 = assay: MTT assay RMG2; assay type: cell-based; settings: Homo sapiens; RMG2, Clear cell
Method: (§3) Majority of ovarian cancers arise from the surface epithelium of ovary, most of them belong to the histological subtypes of clear cell and serous carcinoma. We obtained 10 more human ovarian carcinoma cell-lines of these histological subtypes for these studies. The inhibition activity exerted by Xanifolia-Y was determined with MTT assay.

OVCA 432 = assay: MTT assay OVCA 432; assay type: cell-based; settings: Homo sapiens, OVCA432; OVCA 432, Serous
Method: as §3

60 cancer cell lines = assay: Test with 60 cancer cell lines; assay type: cell-based; settings: most of 60 cancer cell lines tested
Method: To investigate the anti-tumor activity of Xanthoceras sorbifolia, we employed cancer cell lines derived from different human organs and tested the effect on growth activity. […] Intl App'l No. PCT/US04/33359 and U.S. Ser. No. 10/906,303. The active compound was then purified and named Xanifolia-Y. Its chemical structure was determined by 2D NMR and MS analysis. Xanifolia-Y is a novel triterpenoid saponin with a diangeloyl group attached at one end and carbohydrates or sugar moieties at another end of the triterpene structure. In an embodiment, the diangeloyl attached at C21, C22 positions and carbohydrates or sugar moieties at C3 position of a triterpene structure. The diangeloyl group is important for its activity. The purified compound has been tested with 60 cancer cell lines.

skin cancer cells = assay: MTT assay, growth of skin cancer cells; assay type: cell-based; settings: Homo sapiens
Method: as §1, §2

ovarian cancer cells = assay: MTT assay, growth of ovarian cancer cells (FIG. 3A, 3B); assay type: cell-based; settings: Homo sapiens, read-out: IC50, inhibiting growth of ovarian cancer cells
Method: as §1, §2

[2] = system: human ovarian cancer cell lines; assay: MTT assay, additional human ovarian cancer cell lines; assay type: cell-based; settings: 10 additional human ovarian cancer cell lines
Method: as §3

## C/C=C(/C)C(=O)O[C@H]1[C@H](OC(=O)/C(C)=C\C)[C@@]2(CO)C(CC1(C)C)C1=CCC3[C@@]4(C)CC[C@H](O[C@@H]5OC(C(=O)O)[C@@H](O)C(O[C@@H]6O[C@@H](CO)C(O)C6O)C5O[C@@H]5OC(CO)[C@H](O)C(O)C5O)C(C)(C)C4CC[C@@]3(C)[C@]1(C)[C@@H](O)[C@H]2O (stereo partly drawn) [Xanifolia-Y, 3-O-[β-D-galactopyranosyl (1→2)]-α-L-arabinofuranosy (1→3)-β-D-glucuronopyranosyl-21,22-O-diangeloyl-3β, 15α, 16α, 21β, 22α, 28-hexahydroxyolean-12-ene]
HeLa cells
  IC50: 20 µg/mL (≈ 17.5 µM)
[1]; 10 mg/kg, 0.5 hour
  Swelling rate after administration (%): 16.7%
[1]; 10 mg/kg, 1 hour
  Swelling rate after administration (%): 18.5%
[1]; 10 mg/kg, 2 hours
  Swelling rate after administration (%): 16.0%
[1]; 10 mg/kg, 4 hours
  Swelling rate after administration (%): 10.5%
[1]; 20 mg/kg, 0.5 hour
  Swelling rate after administration (%): 10.5%
[1]; 20 mg/kg, 1 hour
  Swelling rate after administration (%): 13.6%
[1]; 20 mg/kg, 2 hours
  Swelling rate after administration (%): 12.4%
[1]; 20 mg/kg, 4 hours
  Swelling rate after administration (%): 8.5%
[1]; 40 mg/kg, 0.5 hour
  Swelling rate after administration (%): 10.3%
[1]; 40 mg/kg, 1 hour
  Swelling rate after administration (%): 12.6%
[1]; 40 mg/kg, 2 hours
  Swelling rate after administration (%): 12.5%
[1]; 40 mg/kg, 4 hours
  Swelling rate after administration (%): 6.5%
RMG2
  IC50: 8.8 µM
OVCA 432
  IC50: 4.4 µM
60 cancer cell lines
  GI50: 0.1 to 1 µM
Skin cancer cells; FIG. 3C, purified compound, read-out: IC50, inhibition of growth of skin cancer cells
  IC50: 0.23 µg/mL (≈ 0.202 µM)
Skin cancer cells; read-out: IC50 on skin cells
  IC50: 12 µg/mL (≈ 10.5 µM)
Ovarian cancer cells
  IC50: ~1.5 µg/mL (≈ 1.31 µM)
[2]
  IC50: 2 to 12 µM
[2]; Homo sapiens
  IC50: 2 to 10 µM
